Data published in US8367731B2, “Peritoneal dialysis fluid” (Fresenius Medical Care Deutschland GmbH, priority 2005, dated 2013).
Counter-ions that a name gives are not always drawn.

Columns and labels:
[1] = test system: complement activation (C3a-desarg); assay: in vitro complement activation, C3a-desarg measured by ELISA after Zymosan addition; type: biochemical, rat
Description: The complement activation was determined from the concentration of C3a-desarg measured by ELISA (rat C3adesARG ELISA #CL89160K; Cedarlane Laboratories Ltd., Hornby, Ontario, Canada). The C3a-desarg levels were expressed as concentrations. Venous blood was used and introduced in a lepirudin treated 5 cc syringe (50 μl lepirudin (5 mg/ml)+70 μl PBS in the syringe and needle). 0.4 ml was transferred to a 3 cc tube with 1.5 ml PD fluid with citrate additions of 0, 2, 4, 6, 8, and 10 mM, respectively, (i.e. 0, 12, 24, 36, 48, 60 μl of a citrate solution with the citrate concentration of 250 mM). Thereafter the samples were spun to remove the blood cells. 1 ml of the supernatant was transferred to a new tube, 20 μl Zymosan (20 mg/ml) was added and the tube. Thereafter EDTA was added to a final concentration of 15 mM, the Zymosan was spun down, and samples of the supernatant were used for the ELISA measurement referred to above. […] However, the upper limit of citrate, which could be present in a PD fluid, is limited by the total amount of buffer solution within the PD fluid. The amount of added citrate influence the total amount of buffer in the PD fluid since citrate also give rise to a buffer effect. Thus, the buffer used in the PD fluid has to be decreased equal to the equivalent amount of added citrate. […]

[2] = in vivo ultrafiltration volume, intraperitoneal volume by Texas Red labelled albumin dilution; conditions: 10 mM citrate in PD fluid; 2 hours after infusion; FIG. 2
Description: The lower limit of the citrate concentration is evident from FIG. 1, where a reasonable inhibited complement cascade is provided with a citrate concentration of at least 4 mM. The ultrafiltration volume was determined with the aid of a fluorescence labelled albumin. This was used as volume marker according to a recently developed technique, in which Texas Red® labelled bovine serum albumin (TR-BSA) has been used as a tracer for determinations of plasma volume. The fluorescence characteristics of TR-BSA (Molecular Probes, Eugene, Oreg., USA) solved in fresh and used PD fluid were evaluated, showing a linear relationship between fluorescence (excitation at 570 nm and emission at 615 nm) and concentration in the range of 0-20 μg/ml. By adding 1 mg/ml of unlabeled bovine serum albumin, a small difference in baseline fluorescence between the fresh and the used PD fluid was eliminated. […] In the present tests, 100 μg Texas Red® labelled bovine serum albumin and 1 mg unlabeled BSA was added to 20 ml PD fluid and intraperitoneal volumes were determined from the dilution calculated from fluorescence values of cell-free samples. The intraperitoneal volumes obtained from measurements of Texas Red® albumin after PD fluid exposure increased when citrate was added to the PD fluid, see FIG. 2. The citrate concentration used in the test of FIG. 2 was 10 mM.

In the case of `O=C(O)CC(O)(CC(=O)O)C(=O)O` [citrate, tri-sodium citrate], the “citrate concentration providing a reasonable inhibited complement cascade” value ([1]; read from FIG. 1, lower limit of citrate in PD fluid) is reported as “at least 4 mM”, the “C3a-desarg concentration (complement activation)” value ([1]; venous blood in PD fluid with citrate additions of 0, 2, 4, 6, 8 and 10 mM, Zymosan, FIG. 1) is reported as “decreased with increasing citrate concentration” and the “intraperitoneal volumes (ultrafiltration) after PD fluid exposure” value [2] is reported as “increased”.
